Test results published in patent US20100034944A1, “Use of Avocado Derivatives in Flavor Applications” (priority 2008, published 2010).

Experiment: flavor descriptors of compounds tasted in salt water, chicken broth, IMP/MSG and NaCl/IMP/MSG solutions

SMILES	flavor descriptors, NaCl 0.1% IMP 0.00359 g/L / MSG 0.0508 g/L (compound 10 ppm in NaCl/IMP/MSG solution)	flavor descriptors, IMP 0.00359 g/L / MSG 0.0508 g/L (compound 20 ppm in IMP/MSG solution)	flavor descriptors, Chicken Broth College Inn 50% reduced Na; Fat free (compound 10 ppm in chicken broth)
C=CCCCCCCCCCCCC(O)CC(O)COC(C)=O (stereo not drawn) [2,4-dihydroxy-16-heptadecen-1-yl acetate]	Very umami	Nice umami	
C#CCCCCCCCCCCCC(O)CC(O)COC(C)=O (stereo not drawn) [2,4-Dihydroxy-16-heptadecyn-1-yl acetate, 2,4-dihydroxy-16-heptadecyn-1-yl acetate]			Bitter
